In patent US7754709B2 (Solvay Pharmaceuticals BV, priority 2003, dated 2010) one finds inhibition data, which are given here for 13 compounds.

Format in all cases: cell-based
For assay [1], the target named is T1, 17β-hydroxysteroid dehydrogenase type 3 (Homo sapiens, UniProt P37058).
T1 construct: expressed in transfected cells; host or cells: MCF-7
T1 sequence (P37058 1-310): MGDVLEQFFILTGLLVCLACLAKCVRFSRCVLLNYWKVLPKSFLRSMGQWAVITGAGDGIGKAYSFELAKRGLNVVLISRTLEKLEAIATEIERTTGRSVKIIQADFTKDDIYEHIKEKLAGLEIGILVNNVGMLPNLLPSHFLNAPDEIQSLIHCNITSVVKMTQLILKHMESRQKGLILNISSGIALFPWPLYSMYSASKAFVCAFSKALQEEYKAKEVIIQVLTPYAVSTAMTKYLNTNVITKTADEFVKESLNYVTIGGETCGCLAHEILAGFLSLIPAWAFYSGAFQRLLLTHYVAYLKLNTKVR
Description: Inhibition of 17β-HSD type 3 in MCF-7 cells stably expressing the isoenzyme (HPLC, tritium labeled androstenedione). The settings on record: 2 nM androstenedione, read-out: % Inhibition of the 17β-HSD enzyme type 3 (HSD3); for inhibition at 1 µM: MCF7, 1 μM compound; for inhibition at 10 µM: MCF7, 10 μM compound. An excerpt:
(§1) Biological Testing Materials and Methods 1. Inhibition of the 17β-hydroxysteroid dehydrogenase type 1, type 2 and type 3 enzyme
(§2) The compounds were screened in respect of 17β-HSD enzyme activity in vitro on established M CF-7 cell lines, each stably expressing one of the respective 17β-HSD isoenzymes. The interconversion of substrate by each isoenzyme and the 17β-HSD inhibiting activity of chemical compounds in these cell lines were detected by HPLC system.
(§3) Varying amounts of the test compounds were incubated in the growth medium of the 17β-HSD expressing cells together tritium labeled substrate (2 nM estrone for 17β-HSD type 1; 2 nM estradiol for 17β-HSD type 2; and 2 nM androstenedione for 17β-HSD type 3). The medium samples were removed after exact incubation time and the reaction is stopped by trichloroacetic acid (TCA). The samples were analyzed by HPLC-coupled flow scintillation analysis.
(§4) For each enzyme type, the HSD-inhibiting activity of an individual test compound was calculated by comparing the conversion of a control sample without any test compound (referred to as “Negative Control”) to the (reduced) conversion of the test sample containing the particular compound to be tested (referred to as “Test Sample”).
(§5) Two concentrations of each compound were used. The number of the compound refers to the numbers indicated in the Experimental Section.

Assay [2] has as its target T2, 17β-hydroxysteroid dehydrogenase type 2 (Homo sapiens, UniProt P37059).
T2 construct: expressed in transfected cells; host or cells: MCF-7
T2 sequence (P37059 1-387): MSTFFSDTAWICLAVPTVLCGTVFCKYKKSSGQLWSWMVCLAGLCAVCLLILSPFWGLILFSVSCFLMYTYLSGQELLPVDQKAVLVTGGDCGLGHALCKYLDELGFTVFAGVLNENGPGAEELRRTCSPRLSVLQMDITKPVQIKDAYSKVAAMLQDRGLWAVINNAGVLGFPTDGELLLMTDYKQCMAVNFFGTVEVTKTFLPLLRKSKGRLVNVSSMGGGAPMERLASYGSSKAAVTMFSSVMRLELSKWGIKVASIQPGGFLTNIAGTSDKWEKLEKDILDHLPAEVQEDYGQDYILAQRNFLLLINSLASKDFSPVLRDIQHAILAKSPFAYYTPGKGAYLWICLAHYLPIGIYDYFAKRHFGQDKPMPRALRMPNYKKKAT
Description: Inhibition of 17β-HSD type 2 in MCF-7 cells stably expressing the isoenzyme (HPLC, tritium labeled estradiol). The settings on record: 2 nM estradiol, read-out: % Inhibition of the 17β-HSD enzyme type 2 (HSD2); for inhibition at 1 µM: MCF7, 1 μM compound; for inhibition at 10 µM: MCF7, 10 μM compound.
Excerpt: as §1, §2, §3, §4, §5

The target in assay [3] is T3, 17β-hydroxysteroid dehydrogenase type 1 (Homo sapiens, UniProt P14061).
T3 construct: expressed in transfected cells; host or cells: MCF-7
T3 sequence (P14061 1-328): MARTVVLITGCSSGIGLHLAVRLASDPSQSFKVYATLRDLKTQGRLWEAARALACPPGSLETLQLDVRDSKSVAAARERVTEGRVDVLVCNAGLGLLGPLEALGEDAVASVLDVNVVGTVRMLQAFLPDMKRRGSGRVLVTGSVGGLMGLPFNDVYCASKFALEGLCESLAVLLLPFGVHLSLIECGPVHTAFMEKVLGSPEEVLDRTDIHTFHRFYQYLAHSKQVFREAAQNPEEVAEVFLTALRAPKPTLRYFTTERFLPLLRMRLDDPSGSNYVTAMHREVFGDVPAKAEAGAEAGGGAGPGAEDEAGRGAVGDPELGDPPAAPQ
Description: Inhibition of 17β-HSD type 1 in MCF-7 cells stably expressing the isoenzyme (HPLC, tritium labeled estrone). The settings on record: 2 nM estrone, read-out: % Inhibition of the 17β-HSD enzyme type 1 (HSD1); for inhibition at 1 µM: MCF7, 1 μM compound; for inhibition at 10 µM: MCF7, 10 μM compound.
Excerpt: as §1, §2, §3, §4, §5

Each structure is given as a SMILES string.

Turning to `CC1CCc2nc3sc4c(c3c(=O)n2CC1)CCCC4` (stereo not drawn) [Compound 14, 9-Methyl-2,3,4,7,8,9,10,11-octahydro-[1]benzothieno[2′,3′:4,5]pyrimido[1,2-a]azepin-13(1H)-one], the inhibition (as a rule, the drop in the measured response relative to a control, in per cent) at 1 µM was 27.6% in assay [1], 5.9% in assay [2] and 12.8% in assay [3]. In addition, the values for the inhibition at 10 µM in assay [1], in assay [2] and in assay [3] were 34.2%, 14.9% and 19.6%, respectively.

Regarding `CCOC(=O)C1CCCn2c1nc1sc3c(c1c2=O)CCCC3` (stereo not drawn) [Compound 15, 1,2,3,4,7,9,10,12-Octahydro-12-oxo-8H-[1]benzothieno[2,3-d]pyrido[1,2-a]pyrimidine-7-carboxylic acid ethyl ester], the inhibition at 1 µM in assay [1] is -0.3%; in assay [2], 10.7%; in assay [3], 14.8%. In addition, the figures for the inhibition at 10 µM in assay [1], in assay [2] and in assay [3] were 13.5%, 15.7% and 24.5%, respectively.

In the case of `CCOC(=O)C1CCc2nc3sc4c(c3c(=O)n2CC1)CCCC4` (stereo not drawn) [Compound 16, 1,2,3,4,7,8,9,10,11,13-Decahydro-13-oxo-[1]benzothieno[2′,3′:4,5]pyrimido[1,2-a]azepine-9-carboxylic acid ethyl ester], the inhibition at 1 µM in assay [1] amounted to 13.6%; in assay [2], 3%; in assay [3] it was 17.2%. Moreover, the inhibition at 10 µM in assay [1] was determined as 22.9%; in assay [2], 24.8%; in assay [3] it was 18.6%.

Take `CC1CCc2nc3sc4c(c3c(=O)n2CC1)CCCC4=O` (stereo not drawn) [Compound 17, 2,3,8,9,10,11-Hexahydro-9-methyl-[1]benzothieno[2′,3′: 4,5]pyrimido[1,2-a]azepine-4,13(1H,7H)-dione]: the inhibition at 1 µM is 21.6% in assay [1], 15.2% in assay [2] and 18.4% in assay [3]. Further, the inhibition at 10 µM came to 32.4% in assay [1], 20.1% in assay [2] and 39.4% in assay [3].

Regarding `CCOC(=O)C1CCCn2c1nc1sc3c(c1c2=O)CCCC3=O` (stereo not drawn) [Compound 18, 4,12-Dioxo-1,2,3,4,7,9,10,12-octahydro-8H-[1]benzothieno[2,3-d]pyrido[1,2-a]pyrimidine-7-carboxylic acid ethyl ester], the inhibition at 1 µM in assay [1] was -3%; in assay [2], 18.7%; in assay [3], 0.5%. The inhibition at 10 µM in assay [1] was determined as 21.3%; in assay [2], 23.8%; in assay [3] it was 9.5%.

On to `CCOC(=O)C1CCc2nc3sc4c(c3c(=O)n2CC1)CCCC4=O` (stereo not drawn) [Compound 19, 4,13-Dioxo-1,2,3,4,7,8,9,10,11,13-decahydro-[1]benzothieno[2′,3′: 4,5]pyrimido[1,2-a]azepine-9-carboxylic acid ethyl ester], for which the inhibition at 1 µM in assay [1] was determined as 13%; in assay [2], 0.6%; in assay [3] it was 10.6%. The values for the inhibition at 10 µM in assay [1], in assay [2] and in assay [3] were 10.5%, 4.4% and 33.1%, respectively.

In the case of `CC1CCc2nc3sc4c(c3c(=O)n2CC1)CCC(C=O)=C4Cl` (stereo not drawn) [Compound 20, 4-Chloro-9-methyl-1,2,7,8,9,10,11,13-octahydro-13-oxo-[1]benzothieno[2′,3′: 4,5]pyrimido [1,2-a]azepine-3-carbaldehyde], the inhibition at 1 µM in assay [1] amounted to 32%; in assay [2], 11.2%; in assay [3], 10.4%. Besides, the inhibition at 10 µM in assay [1] came to 100%; in assay [2], 6.2%; in assay [3] it was 45.7%.

With `CCOC(=O)C1CCc2nc3sc4c(c3c(=O)n2CC1)CCC(C=O)=C4Cl` (stereo not drawn) [Compound 21, 4-Chloro-3-formyl-1,2,7,8,9,10,11,13-octahydro-13-oxo-[1]benzothieno[2′,3′: 4,5]pyrimido[1,2-a]azepine-9-carboxylic acid ethyl ester], the inhibition at 1 µM in assay [1] came out at 20%; in assay [2], 13.1%; in assay [3], 10.9%. In addition, the inhibition at 10 µM in assay [1] is 87.3%; in assay [2], 32.9%; in assay [3] it was 33.5%.

With `CCCSC1=C(C=O)CCc2c1sc1nc3n(c(=O)c21)CCC(C(=O)OCC)CC3` (stereo not drawn) [Compound 22, 3-Formyl-1,2,7,8,9,10, 11,13-octahydro-13-oxo-4-(propylthio)-[1]benzothieno [2′,3′: 4,5]pyrimido[1,2-a]azepine-9-carboxylic acid ethyl ester], the values for the inhibition at 1 µM in assay [1], in assay [2] and in assay [3] were 25.5%, 6.8% and 24.3%, respectively. For the same compound, the inhibition at 10 µM in assay [1] is 100%; in assay [2], 16.1%; in assay [3], 46.5%.

Take `CCCSC1=C(C=O)CCc2c1sc1nc3n(c(=O)c21)CCC(C(=O)OC)CC3` (stereo not drawn) [Compound 23, 3-Formyl-1,2,7,8,9,10,11,13-octahydro-13-oxo-4-(propylthio)-[l]benzothieno[2′,3′: 4,5] pyrimido[1,2-a]azepine-9-carboxylic acid methyl ester]: the results for the inhibition at 1 µM in assay [1], in assay [2] and in assay [3] were 19.5%, 9.7% and 17.4%, respectively. The inhibition at 10 µM came to 89.5% in assay [1], 17.7% in assay [2] and 64.7% in assay [3].

In the case of `COC(=O)C1CCc2nc3sc4c(c3c(=O)n2CC1)CCC(C=O)=C4OC` (stereo not drawn) [Compound 24, 3-Formyl-4-methoxy-1,2,7,8,9,10,11,13-octahydro-13-oxo-[1]benzothieno[2′,3′: 4,5]pyrimido [1,2-a]azepine-9-carboxylic acid methyl ester], the inhibition at 1 µM amounted to 18% in assay [1], 3.1% in assay [2] and 24.9% in assay [3]. The inhibition at 10 µM is 59.6% in assay [1], 19.3% in assay [2] and 32.3% in assay [3].

As to `O=c1c2c3c(sc2nc2ccccn12)CCCC3` [Compound 25, 1,2,3,4-Tetrahydro-12H-[1]benzothieno[2,3-d]pyrido[1,2-a]pyrimidin-12-one], the figures for the inhibition at 1 µM in assay [1], in assay [2] and in assay [3] were -3.2%, 14% and 6.2%, respectively. For the same compound, the inhibition at 10 µM in assay [1] is 7.9%; in assay [2], 33.6%; in assay [3], 8.7%.

Regarding `O=C1CCCc2c1sc1nc3ccccn3c(=O)c21` [Compound 26, 2,3-Dihydro-12H-[l]benzothieno[2,3-d]pyrido[1,2-a]pyrimidin-4, 12(1H)-dione], the inhibition at 1 µM is -2.1% in assay [1], 15.1% in assay [2] and 6.4% in assay [3]. Moreover, the inhibition at 10 µM was 0.3% in assay [1], 16.4% in assay [2] and -0.8% in assay [3].
